Assay results reported in ChEMBL document CHEMBL3751852, “New mannose derivatives: The tetrazole analogue of mannose-6-phosphate as angiogenesis inhibitor” (2016).
Activity calls are given as the source filed them. No cut-off for these calls is given here.

Test system: Chorioallantoic membrane
Assay: Antiangiogenic activity in chicken chorioallantoic membrane assessed as area of neovascularization at 60 mg/ml administered on 7th embryonic day incubated for 4 days by microscopy (reference value: 100%)
Type: functional, Gallus gallus

Structure (SMILES): CO[C@H]1O[C@H](CCP(=O)(O)O)[C@@H](O)[C@H](O)[C@@H]1O
- Activity: 138%

Structure (SMILES): CO[C@H]1O[C@H](CCC(=O)O)[C@@H](O)[C@H](O)[C@@H]1O
- Activity: 70%

Structure (SMILES): CO[C@H]1O[C@H](COP(=O)(O)O)[C@@H](O)[C@H](O)[C@@H]1O
- Activity: 43%

Structure (SMILES): CO[C@H]1O[C@H](CS(=O)(=O)c2ccccc2)[C@@H](O)[C@H](O)[C@@H]1O
- Activity (Gallus gallus): inactive

Structure (SMILES): CO[C@H]1O[C@H](Cc2nnn[nH]2)[C@@H](O)[C@H](O)[C@@H]1O
- Activity: 68%
